From US5767113A, “Compounds useful for concurrently activating glucocorticoid-induced response and reducing multidrug resistance” (The Salk Institute For Biological Studies, priority 1995, dated 1998) come the findings set out here.

For assay [1], the system named is murine thymoma W7TB cells. The assay can be described thus: Glucocorticoid agonist activity: glucocorticoid-induced apoptosis of murine thymoma W7TB cells (turbidity at 660 nm). It is filed as cell-based. To be noted: Mus musculus, 120 h, 5 days, agonist concentration that reduces Relative Turbidity to 50%, read-out: LD50 ^3. The procedure: FIG. 1 presents the results of an evaluation of the glucocorticoid agonist activity of several steroid analogs. The glucocorticoid-induced apoptosis of murine thymoma W7TB cells was taken as a measure of the agonist activity of steroid analogs. Murine W7TB cells were distributed (5×10^4 cells/ml/well) into multiwell dishes and incubated for 5 days with increasing concentrations of test compound, as indicated in the Figure. At the end of the incubation period, the turbidity values (at 660 nm) for each set of cultures were measured and expressed relative to cells that were incubated without test compound. These values represent the effect of test compound on the relative amount of cell proliferation under a given set of growth conditions. Each value shown in the Figures is the average of 2 separate determinations.
The glucocorticoid agonist activity of several steroid analogs was evaluated by determining the glucocorticoid-induced apoptosis of murine thymoma W7TB cells. Thus, murine W7TB cells were distributed (5×10^4 cells/ml/well) into multiwell dishes and incubated for 5 days with increasing concentrations of test compound, as indicated in FIG. 1. Dichlorisone is 1,4-pregnadiene-9α, 11β-dichloro-17α-21-diol-3,20-dione; "SA 44" is the 3,4-dimethoxy benzoic acid ester of dichlorisone; and "SA 47" is the 4-dimethylamino benzoic acid ester of dichlorisone. "17-DOD" is 17-deoxydexamethasone (i.e., 1,4-pregnadien-9α-fluoro-16αmethyl-11β,21-diol-3,20-dione); "SA 45" is the 4-dimethylamino benzoic acid ester of 17-DOD; and "SA 54" is the N-benzylcarbamate of 17-DOD.
At the end of the incubation period, the turbidity values (at 660 nm) for each set of cultures were measured and expressed relative to cells that were incubated without test compound. These values represent the effect of test compound on the relative amount of cell proliferation under a given set of growth conditions. Each value shown in FIGS. 1A and 1B is the average of 2 separate determinations. Results are also presented in the third data column of Table 1, wherein LD50 values reflect the agonist concentration that causes the Relative Turbidity value to be reduced to 50%.

Assay [2] relates to CEM/VLB100 cells. The assay can be described thus: Reversal of vinblastine resistance in the CEM/VLB100 cell line (turbidity at 660 nm). It counts as cell-based, human. The procedure:
(§1) Human CEM/VLB100 cells were distributed (5×10^4 cells/ml, 1 ml/well) into multiwell dishes and incubated for 5 days with 30 nM vinblastine and increasing concentrations of test compound, as indicated in the Figure. At the end of the incubation period, the turbidity values (at 660 nm) for each set of cultures were measured and expressed relative to cells that were incubated without test compound. These values represent the ability of test compound, relative to control (i.e., verapamil) to reverse CEM/VLB100 resistance to 30 nM vinblastine, as reflected by the relative amount of cell proliferation under a given set of growth conditions. Each value shown in the Figures is the average of 2 separate determinations.
II. Reversal of Vinblastine Resistance in the CEM/VLB100 Cell Line
as §1, with “The CEM/VLB100 cell line is a derivative of human CEM cells, selected for resistance to vinblastine. This cell line expresses the human MDR1 gene.” for “Human”, “FIG. 2.” for “the Figure.”, “compound” for “compound, relative to control (i.e., verapamil)”, “FIG. 2” for “the Figures”, “determinations. Results are also presented in the second data column of Table 1, wherein the ED50 values reflect the concentration of chemosensitizer that causes the Relative Turbidity value to be reduced by 50%.” for “determinations.”

The test system of assay [3] is S7dexΓ -1 cells. Put plainly: Reversal of puromycin resistance in the S7dex-1 cell line (turbidity at 660 nm). It counts as cell-based, murine. The text has this: I. Reversal of Puromycin Resistance in the S7dexΓ -1 Cell Line
The S7dexΓ- 1 cell line is a glucocorticoid resistant derivative of the S7CD-5 cell line. It was selected on the basis of its resistance to the glucocorticoid agonist triamcinolone acetonide (5×10^-7 M) from S7CD-5 cells that had been mutagenized with N-methyl-N'-nitro-N-nitrosoguanidine. The apoptic response to glucocorticoid agonists is not elicited in the S7dexΓ -1 cells. Thus, murine S7dexΓ -1 cells were distributed (5×10^4cells/ml, 1 ml/well) into multiwell dishes and incubated for 5 days with 20 μM puromycin and increasing concentrations of test compound. At the end of the incubation period, the turbidity values (at 660 nm) for each set of cultures were measured and expressed relative to cells that were incubated without test compound. These values represent the ability of test compound to reverse S7dexΓ -1 resistance to 20 μM puromycin, as reflected by the relative amount of cell proliferation under a given set of growth conditions. The number of repetitions of each value presented in the first data column of Table 1 are indicated in parenthesis after each entry. In the Table, the ED50 values reflect the concentration of chemosensitizer that causes the Relative Turbidity value to be reduced by 50%.

The mark [4] stands for this setting: 5 days with 30 nM vinblastine, chemosensitizer concentration that reduces Relative Turbidity by 50%, read-out: ED50 ^2.
The mark [5] stands for this setting: S7dex1 cells, 5 days with 20 μM puromycin; chemosensitizer concentration that reduces Relative Turbidity by 50%; read-out: ED50 ^1.
The mark [6] stands for this setting: read-out: ED50 ^2, 5 days with 30 nM vinblastine, chemosensitizer concentration that reduces Relative Turbidity by 50%.
Setting [7] is: read-out: ED50 ^1; S7dex1 cells, 5 days with 20 μM puromycin; chemosensitizer concentration that reduces Relative Turbidity by 50%.

Read-outs that look alike come from different tables or passages of the source.

In the case of `C[C@@H]1C[C@H]2[C@@H]3CCC4=CC(=O)C=C[C@]4(C)[C@@]3(F)[C@@H](O)C[C@]2(C)[C@H]1C(=O)CO` [17-DOD, 1,4-Pregnadien-9α-fluoro-16α-methyl-11β,21-diol-3, 20-dione, reference compound], the IC50 is 5.3 nM in assay [1], > 8000 nM in assay [2] (setting [4]) and 2700 nM in assay [3] (setting [5]).

Take `C[C@]12C=CC(=O)C=C1CC[C@H]1[C@@H]3CC[C@](O)(C(=O)CO)[C@@]3(C)C[C@H](Cl)[C@@]12Cl` [Dichlorisone, 1,4-pregnadiene-9α,11β-dichloro-17α-21-diol-3,20-dione, reference compound]: the values for the IC50 in assay [1], in assay [2] (setting [6]) and in assay [3] (setting [7]) were 7.5 nM, > 8000 nM and > 8000 nM, respectively.

Turning to `CC(=O)[C@H]1CC[C@H]2[C@@H]3CCC4=CC(=O)CC[C@]4(C)[C@H]3CC[C@]12C` [Progesterone, reference compound], the IC50 was 2400 nM in assay [1], > 8000 nM in assay [2] (setting [4]) and 1600 nM in assay [3] (setting [5]).

Regarding `COc1ccc(C(=O)OCC(=O)[C@H]2[C@H](C)C[C@H]3[C@@H]4CCC5=CC(=O)C=C[C@]5(C)[C@@]4(F)[C@@H](O)C[C@@]32C)cc1OC` [SA 43, 1,4-Pregnadien-9α-fluoro-16α-methyl-11β,21-diol-3,20-dione,21-(3 ,4-dimethoxybenzoate)], the IC50 in assay [1] amounted to 18 nM; in assay [2] (setting [4]), 1200 nM.

As for `COc1ccc(C(=O)OCC(=O)[C@@]2(O)CC[C@H]3[C@@H]4CCC5=CC(=O)C=C[C@]5(C)[C@@]4(Cl)[C@@H](Cl)C[C@@]32C)cc1OC` [SA 44, 1,4-Pregnadien-9α11β-dichloro-17α,21-diol-3,20-dione, 21-(3,4-dimethoxybenzoate)], the IC50 in assay [1] was 14 nM; in assay [2] (setting [4]) it was 2500 nM; in assay [3] (setting [5]) it was 440 nM.

Take `C[C@@H]1C[C@H]2[C@@H]3CCC4=CC(=O)C=C[C@]4(C)[C@@]3(F)[C@@H](O)C[C@]2(C)[C@H]1C(=O)COC(=O)c1ccc(N(C)C)cc1` [SA 45, 1,4-Pregnadien-9α-fluoro-16αmethyl-11β,21-diol-3 20-dione, 21-(4-dimethylaminobenzoate)]: the IC50 in assay [1] is 34 nM; in assay [2] (setting [4]), 2700 nM; in assay [3] (setting [5]), 360 nM.

Consider `CN(C)c1ccc(C(=O)OCC(=O)[C@@]2(O)CC[C@H]3[C@@H]4CCC5=CC(=O)C=C[C@]5(C)[C@@]4(Cl)[C@@H](Cl)C[C@@]32C)cc1` [SA 47, 1,4-Pregnadien-9α,11β-dichloro-17α,21-diol-3,20-dione, 21-(4-dimethylaminogenzoate)], for which the figures for the IC50 in assay [1], in assay [2] (setting [4]) and in assay [3] (setting [5]) were 13 nM, 1100 nM and 450 nM, respectively.

Regarding `CC(=O)[C@H]1[C@H](C)C[C@H]2[C@@H]3CCC4=CC(=O)C=C[C@]4(C)[C@@]3(F)[C@@H](O)C[C@@]21C` [SA 50, 1,4-Pregnadien-9αfluoro-16αmethyl-11β-ol-3 20-dione], the figures for the IC50 in assay [1], in assay [2] (setting [4]) and in assay [3] (setting [5]) were 9 nM, > 8000 nM and 530 nM, respectively.

As for `C[C@@H]1C[C@H]2[C@@H]3CCC4=CC(=O)C=C[C@]4(C)[C@@]3(F)[C@@H](O)C[C@]2(C)[C@H]1C(=O)COC(=O)NCc1ccccc1` [SA 54, 1,4-Preqnadien-9αfluoro-16αmethyl-11β,21-diol-3 20-dione, 21-(N-benzylcarbamate)], the IC50 stood at 250 nM in assay [1], 1800 nM in assay [2] (setting [4]) and 420 nM in assay [3] (setting [5]).

Consider `COc1ccc(CCN(C)CCCC(C#N)(c2ccc(OC)c(OC)c2)C(C)C)cc1OC` (stereo not shown) [Verapainil, verapamil, reference compound], for which the IC50 in assay [2] (setting [6]) was found to be 1300 nM; in assay [3] (setting [7]) it was 760 nM.
